Assay results as given in patent publication US20260034094A1, “COMPOSITIONS AND METHODS FOR INDUCING FERROPTOSIS” (Kojin Therapeutics, Inc., priority 2022, published 2026).
Several values for one entry are separate records, joined by “and”; a condition that tells them apart may be missing. Equal entries are not always repeated. Where two headings read alike, the source gives them in different places.

How the values were obtained:
[1] = molecular target: human recombinant GCL (Homo sapiens (Human), UniProt P48506); test: GCL enzyme profiling assay (ADP-Glo luminescence); format: biochemical; details: human recombinant GCL 5 nM, 1 h preincubation with ATP
Chain of human recombinant GCL (P48506 whole entry): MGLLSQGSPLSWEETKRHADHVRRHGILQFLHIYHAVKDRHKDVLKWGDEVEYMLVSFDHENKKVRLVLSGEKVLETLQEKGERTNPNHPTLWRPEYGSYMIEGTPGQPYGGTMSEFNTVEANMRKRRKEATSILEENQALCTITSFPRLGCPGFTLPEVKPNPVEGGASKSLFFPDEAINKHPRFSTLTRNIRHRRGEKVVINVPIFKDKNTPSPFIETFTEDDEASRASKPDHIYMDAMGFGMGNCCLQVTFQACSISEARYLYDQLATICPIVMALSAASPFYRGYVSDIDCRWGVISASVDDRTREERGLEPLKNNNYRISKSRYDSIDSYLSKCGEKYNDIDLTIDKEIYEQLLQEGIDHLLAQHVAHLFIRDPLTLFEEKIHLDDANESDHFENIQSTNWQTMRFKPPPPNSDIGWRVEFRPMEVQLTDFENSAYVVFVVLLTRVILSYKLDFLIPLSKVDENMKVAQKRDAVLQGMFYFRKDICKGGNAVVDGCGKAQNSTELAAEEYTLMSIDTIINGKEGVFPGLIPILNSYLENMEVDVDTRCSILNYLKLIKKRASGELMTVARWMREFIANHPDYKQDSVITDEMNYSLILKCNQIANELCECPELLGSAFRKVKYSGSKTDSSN
How it was run: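 ADP-Glo luminescence readout; 5 nM enzyme preincubated 1 h at 22 °C with 0.6 mM ATP, then started with 1 mM glutamate and 1.2 mM α-aminobutyrate, stopped after 2 h. Buffer: HEPES pH 7.5, MgCl2, DTT, BSA, 0.2% F-127, 1% DMSO. IC50 from four-parameter logistic fit.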

[2] = test system: RKN cells; test: RKN cell profiling assay (cell viability, CellTiter-Glo); format: cell-based; details: 96 h exposure
How it was run: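 Cells seeded at 1,000/well in F-12 with 10% FBS, left to adhere 24 h, then compound-treated for 96 h at 0.5% final DMSO. Viability by CellTiter-Glo luminescence; EC50 from four-parameter logistic fit. Ferroptosis rescue runs included 1.5 μM ferrostatin-1 added at seeding.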

[3] = 96 h, read-out: Cell Killing EC50
[4] = read-out: GCL IC50 (mM), individual values in parentheses

| SMILES | IC50 ([1]; read-out: GCL IC50) | EC50 [2, 3] | other results |
| --- | --- | --- | --- |
| CCCCNC(=O)[C@@H](N)CCS(=N)(=O)CCCC(F)(F)F (stereo partly shown) [Compound 131] | > 2 mM | < 1 mM | – |
| N=S(=O)(CCCC(F)(F)F)CC[C@H](N)C(=O)Nc1ccccc1 (stereo partly shown) [Compound 132] | > 2 mM | < 1 mM | – |
| N=S(=O)(CCCC1CC1)CC[C@H](N)C(=O)O (stereo partly drawn) [Compound 134, (2S)-2-amino-4-(3-cyclopropylpropylsulfonimidoyl)butanoic acid] | 0.02 to 2 mM | ≥ 1 mM | – |
| N=S(=O)(CC[C@H](N)C(=O)O)CCC1(O)CC1 (stereo partly drawn) [Compound 135, (2S)-2-amino-4-(2-(1-hydroxycyclopropyl)ethylsulfonimidoyl)butanoic acid] | 0.02 to 2 mM | < 1 mM | – |
| N=S(=O)(CC[C@H](N)C(=O)O)CC(=O)C1CCCC1 (stereo partly drawn) [Compound 136, (2S)-2-amino-4-(2-cyclopentyl-2-oxoethylsulfonimidoyl)butanoic acid] | 0.02 to 2 mM | ≥ 1 mM | – |
| N=S(=O)(CC[C@H](N)C(=O)O)CC(O)C1CCCC1 (stereo partly shown) [Compound 137] | 0.02 to 2 mM | < 1 mM | EC50 ([2]; 96 h, read-out: Cell Killing EC50 (mM), individual values in parentheses): 1.47 mM; EC50 ([2]; read-out: Cell Killing EC50 (mM), individual values in parentheses): 0.92 mM |
| N=[S@](=O)(CCCC(F)(F)F)CC[C@H](N)C(=O)O [Compound 139, (S)-2-amino-4-((S)-4,4,4-trifluorobutylsulfonimidoyl)butanoic acid] | ≤ 0.02 mM | < 1 mM | – |
| N=S(=O)(CC[C@H](N)C(=O)O)Cc1ccccc1 (stereo partly shown) [Compound 140] | > 2 mM | ≥ 1 mM | – |
| N=S(=O)(CCC1CCCC1)CC[C@H](N)C(=O)O (stereo partly shown) [Compound 141] | ≤ 0.02 mM | < 1 mM | – |
| N=S(=O)(CCC1CCCCC1)CC[C@H](N)C(=O)O (stereo partly shown) [Compound 142] | ≤ 0.02 mM | ≥ 1 mM | – |
| N=S(=O)(CCC1C2CC3CC(C2)CC1C3)CC[C@H](N)C(=O)O (stereo partly shown) [Compound 143] | 0.02 to 2 mM | ≥ 1 mM | – |
| CC#CCS(=N)(=O)CC[C@H](N)C(=O)O (stereo partly shown) [Compound 144] | 0.02 to 2 mM | ≥ 1 mM | – |
| N=S(=O)(CC[C@H](N)C(=O)O)CCN1CCCC1=O (stereo partly shown) [Compound 145] | > 2 mM | ≥ 1 mM | – |
| CC(C)(C)[C@@H](N)CS(=N)(=O)CC[C@H](N)C(=O)O (stereo partly shown) [Compound 147] | > 2 mM | ≥ 1 mM | – |
| CC(C)(C)[C@H](N)CS(=N)(=O)CC[C@H](N)C(=O)O (stereo partly shown) [Compound 148] | 0.02 to 2 mM | ≥ 1 mM | – |
| N=S(=O)(CCCC(F)(F)F)CC[C@H](N)C(=O)O (stereo partly drawn) [Compound 150, (2S)-2-amino-4-(4,4,4-trifluorobutylsulfonimidoyl)butanoic acid] | ≤ 0.02 mM | < 1 mM | – |
| N#CC1(CCS(=N)(=O)CC[C@H](N)C(=O)O)CC1 (stereo partly shown) [Compound 151] | 0.02 to 2 mM | ≥ 1 mM | – |
| CC(C)(CCS(=N)(=O)CC[C@H](N)C(=O)O)C(F)(F)F (stereo partly shown) [Compound 152] | 0.02 to 2 mM | < 1 mM | – |
| N=S(=O)(CC[C@H](N)C(=O)O)CCC1(O)CCC1 (stereo partly shown) [Compound 153] | 0.02 to 2 mM | < 1 mM | – |
| N=S(=O)(CCC(O)C(F)(F)F)CC[C@H](N)C(=O)O (stereo partly drawn) [Compound 154, (2S)-2-amino-4-(4,4,4-trifluoro-3-hydroxybutylsulfonimidoyl)butanoic acid] | ≤ 0.02 mM | < 1 mM | – |
| COC(CCS(=N)(=O)CC[C@H](N)C(=O)O)C(F)(F)F (stereo partly shown) [Compound 155] | ≤ 0.02 mM | < 1 mM | – |
| N=S(=O)(/C=C/c1ccccc1)CC[C@H](N)C(=O)O (stereo partly shown) [Compound 156] | 0.02 to 2 mM | ≥ 1 mM | – |
| N=S(=O)(CCC1CCOCC1)CC[C@H](N)C(=O)O (stereo partly shown) [Compound 157] | 0.02 to 2 mM | ≥ 1 mM | – |
| COC(C)(C)CCS(=N)(=O)CC[C@H](N)C(=O)O (stereo partly shown) [Compound 158] | 0.02 to 2 mM | < 1 mM | – |
| CC1(CCS(=N)(=O)CC[C@H](N)C(=O)O)COC1 (stereo partly shown) [Compound 185] | 0.02 to 2 mM | – | EC50 ([2]; read-out: Cell Killing EC50): ≥ 1 mM |

Now from value to molecule, other results behind:

| IC50 ([1]; read-out: GCL IC50) | SMILES | EC50 [2, 3] | other results |
| --- | --- | --- | --- |
| > 2 mM | CCCCS(=N)(=O)CC[C@H](NC)C(=O)O (stereo partly shown) [Compound 159] | ≥ 1 mM | – |
| 0.02 to 2 mM | N=S(=O)(CCC1CC(F)(F)C1)CC[C@H](N)C(=O)O (stereo partly shown) [Compound 161] | < 1 mM | – |
| 0.02 to 2 mM | CC(C)OCCCS(=N)(=O)CC[C@H](N)C(=O)O (stereo partly shown) [Compound 162] | ≥ 1 mM | – |
| 0.02 to 2 mM | CC(C)(F)CCS(=N)(=O)CC[C@H](N)C(=O)O (stereo partly shown) [Compound 163] | < 1 mM | – |
| 0.02 to 2 mM | COCCS(=N)(=O)CC[C@H](N)C(=O)O (stereo partly shown) [Compound 164] | ≥ 1 mM | – |
| ≤ 0.02 mM | N=S(=O)(CCC1CCC1)CC[C@H](N)C(=O)O (stereo partly shown) [Compound 165] | < 1 mM | – |
| 0.02 to 2 mM | CC(C)OCCS(=N)(=O)CC[C@H](N)C(=O)O (stereo partly shown) [Compound 166] | ≥ 1 mM | – |
| 0.02 to 2 mM | COC(=O)C(C)(C)CCS(=N)(=O)CC[C@H](N)C(=O)O (stereo partly shown) [Compound 167] | < 1 mM | – |
| 0.02 to 2 mM | N=S(=O)(CC[C@H](N)C(=O)O)Cc1ccccc1C(=O)O (stereo partly shown) [Compound 168] | ≥ 1 mM | – |
| ≤ 0.02 mM and 0.02 to 2 mM | N=S(=O)(CCCC(F)F)CC[C@H](N)C(=O)O (stereo partly shown) [Compound 169] | < 1 mM | IC50 [1, 4]: 0.0102 mM and 0.1 mM |
| 0.02 to 2 mM | N=S(=O)(CCOC(F)F)CC[C@H](N)C(=O)O (stereo partly shown) [Compound 170] | ≥ 1 mM | – |
| 0.02 to 2 mM | CC(C)(C#N)CCS(=N)(=O)CC[C@H](N)C(=O)O (stereo partly shown) [Compound 171] | ≥ 1 mM | – |
| 0.02 to 2 mM | CCC(CC(F)(F)F)CS(=N)(=O)CC[C@H](N)C(=O)O (stereo partly shown) [Compound 172] | ≥ 1 mM | – |
| 0.02 to 2 mM | N=S(=O)(CC[C@H](N)C(=O)O)CCC1(F)CCC1 (stereo partly shown) [Compound 173] | < 1 mM | – |
| 0.02 to 2 mM | CC(O)(CCS(=N)(=O)CC[C@H](N)C(=O)O)C(F)(F)F (stereo partly drawn) [Compound 174, (2S)-2-amino-4-(4,4,4-trifluoro-3-hydroxy-3-methylbutylsulfonimidoyl)butanoic acid] | < 1 mM | – |
| 0.02 to 2 mM | N=S(=O)(CCOCC(F)(F)F)CC[C@H](N)C(=O)O (stereo partly shown) [Compound 175] | ≥ 1 mM | – |
| > 2 mM | COC(CC[S@@](=N)(=O)CC[C@H](N)C(=O)O)C(F)(F)F (stereo partly shown) [Compound 176] | ≥ 1 mM | – |
| > 2 mM | COC(CC[S@@](=N)(=O)CC[C@H](N)C(=O)O)C(F)(F)F (stereo partly shown) [Compound 177] | – | EC50 ([2]; read-out: Cell Killing EC50): ≥ 1 mM |
| ≤ 0.02 mM | COC(CC[S@](=N)(=O)CC[C@H](N)C(=O)O)C(F)(F)F (stereo partly shown) [Compound 178] | < 1 mM | – |
| ≤ 0.02 mM | COC(CC[S@](=N)(=O)CC[C@H](N)C(=O)O)C(F)(F)F (stereo partly shown) [Compound 179] | – | EC50 ([2]; read-out: Cell Killing EC50): < 1 mM |
| ≤ 0.02 mM | N=S(=O)(CCC1CCCC1(F)F)CC[C@H](N)C(=O)O (stereo partly shown) [Compound 180] | ≥ 1 mM | – |
| 0.02 to 2 mM | N=S(=O)(CCC1COC1)CC[C@H](N)C(=O)O (stereo partly shown) [Compound 181] | ≥ 1 mM | – |
| 0.02 to 2 mM | N=S(=O)(CC[C@H](N)C(=O)O)CCC1(CO)CCC1 (stereo partly shown) [Compound 182] | < 1 mM | – |
| > 2 mM | CC(C)(N)CCS(=N)(=O)CC[C@H](N)C(=O)O (stereo partly shown) [Compound 183] | ≥ 1 mM | – |
| 0.02 to 2 mM | CC(C)(CO)CCS(=N)(=O)CC[C@H](N)C(=O)O (stereo partly shown) [Compound 184] | < 1 mM | – |
| ≤ 0.02 mM and 0.02 to 2 mM | N=S(=O)(CCC(C(F)(F)F)C(F)(F)F)CC[C@H](N)C(=O)O (stereo partly shown) [Compound 186] | < 1 mM | IC50 [1, 4]: 0.022 mM and 0.0183 mM |
| 0.02 to 2 mM | CC(C)(C)CCS(=N)(=O)CC[C@H](N)C(=O)O (stereo partly shown) [Compound 187] | < 1 mM | – |
| 0.02 to 2 mM | N=S(=O)(CC[C@H](N)C(=O)O)CCC1(C(N)=O)CCC1 (stereo partly drawn) [Compound 188, (2S)-2-amino-4-(2-(1-carbamoylcyclobutyl)ethylsulfonimidoyl)butanoic acid] | < 1 mM | – |
| 0.02 to 2 mM | CCOC(=O)C1(CCS(=N)(=O)CC[C@H](N)C(=O)O)CCC1 (stereo partly shown) [Compound 189] | < 1 mM | – |
